Key:
Experiment in all cases: relative viability (nuclei count vs DMSO), 5 days (fraction); higher = more cells survive
[1] = compound: C1COCCN1C2=NC(=NC3=C2OC4=C3C=CC=N4)C5=CC(=CC=C5)NC(=O)C6=CN=C(C=C6)N + CC(=O)Nc1cccc(-n2c(=O)n(C3CC3)c(=O)c3c(Nc4ccc(I)cc4F)n(C)c(=O)c(C)c32)c1 [Trametinib] (partner 0.02 µM)
Method in brief: (§1)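 Relative viability was taken as the ratio of nuclei in treated wells to nuclei in vehicle wells. Lung cancer cell lines in 1536-well plates received compounds by pin tool one day after seeding, either one drug alone or a fixed anchor-drug dose plus five library-drug doses (not always all listed) in √10 steps. Nuclei were counted on 4× images after 5 days of treatment, and values are medians of duplicate plates.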

SGI-1776 + Olaparib = compound: CN1CCC(CNc2ccc3ncc(-c4cccc(OC(F)(F)F)c4)n3n2)CC1 [SGI-1776] + O=C(c1cc(Cc2n[nH]c(=O)c3ccccc23)ccc1F)N1CCN(C(=O)C2CC2)CC1 [Olaparib] (partner 8 µM)
Method in brief: as §1

SGI-1776 + Pictilisib = compound: CN1CCC(CNc2ccc3ncc(-c4cccc(OC(F)(F)F)c4)n3n2)CC1 [SGI-1776] + CS(=O)(=O)N1CCN(Cc2cc3nc(-c4cccc5[nH]ncc45)nc(N4CCOCC4)c3s2)CC1 [Pictilisib] (partner 1 µM)
Method in brief: as §1

[2] = compound: C1COCCN1C2=NC(=NC3=C2OC4=C3C=CC=N4)C5=CC(=CC=C5)NC(=O)C6=CN=C(C=C6)N + C[C@@H](Oc1cc(-c2cnn(C3CCNCC3)c2)cnc1N)c1c(Cl)ccc(F)c1Cl [Crizotinib] (partner 1 µM)
Method in brief: as §1

Cell Line: LC-2-ad
- relative viability ([1]; first compound 0.02 µM): 0.959
- relative viability ([1]; first compound 0.06325 µM): 0.983
- relative viability ([1]; first compound 0.2 µM): 0.962
- relative viability ([1]; first compound 0.6325 µM): 0.899
- relative viability ([1]; first compound 2 µM): 0.654
- relative viability (SGI-1776 + Olaparib; first compound 0.08 µM): 0.755
- relative viability (SGI-1776 + Olaparib; first compound 0.8 µM): 0.776
- relative viability (SGI-1776 + Olaparib; first compound 2.53 µM): 0.756
- relative viability (SGI-1776 + Olaparib; first compound 8 µM): 0.696
- relative viability (SGI-1776 + Pictilisib; first compound 0.08 µM): 0.428
- relative viability (SGI-1776 + Pictilisib; first compound 0.8 µM): 0.522
- relative viability (SGI-1776 + Pictilisib; first compound 2.53 µM): 0.544
- relative viability (SGI-1776 + Pictilisib; first compound 8 µM): 0.254
- relative viability ([2]; first compound 0.02 µM): 0.486
- relative viability ([2]; first compound 0.06325 µM): 0.494
- relative viability ([2]; first compound 0.2 µM): 0.411
- relative viability ([2]; first compound 0.6325 µM): 0.5
- relative viability ([2]; first compound 2 µM): 0.387

Cell Line: NCI-H1734
- relative viability ([1]; first compound 0.02 µM): 0.657
- relative viability ([1]; first compound 0.06325 µM): 0.816
- relative viability ([1]; first compound 0.2 µM): 0.67
- relative viability ([1]; first compound 0.6325 µM): 0.635
- relative viability ([1]; first compound 2 µM): 0.512
- relative viability (SGI-1776 + Olaparib; first compound 0.08 µM): 0.69
- relative viability (SGI-1776 + Olaparib; first compound 0.8 µM): 0.691
- relative viability (SGI-1776 + Olaparib; first compound 2.53 µM): 0.715
- relative viability (SGI-1776 + Olaparib; first compound 8 µM): 0.567
- relative viability (SGI-1776 + Pictilisib; first compound 0.08 µM): 0.468
- relative viability (SGI-1776 + Pictilisib; first compound 0.8 µM): 0.472
- relative viability (SGI-1776 + Pictilisib; first compound 2.53 µM): 0.396
- relative viability (SGI-1776 + Pictilisib; first compound 8 µM): 0.332
- relative viability ([2]; first compound 0.02 µM): 0.73
- relative viability ([2]; first compound 0.06325 µM): 0.731
- relative viability ([2]; first compound 0.2 µM): 0.612
- relative viability ([2]; first compound 0.6325 µM): 0.636
- relative viability ([2]; first compound 2 µM): 0.345

Cell Line: NCI-H441
- relative viability ([1]; first compound 0.02 µM): 0.453
- relative viability ([1]; first compound 0.06325 µM): 0.423
- relative viability ([1]; first compound 0.2 µM): 0.29
- relative viability ([1]; first compound 0.6325 µM): 0.337
- relative viability ([1]; first compound 2 µM): 0.312
- relative viability (SGI-1776 + Olaparib; first compound 0.08 µM): 0.569
- relative viability (SGI-1776 + Olaparib; first compound 0.8 µM): 0.521
- relative viability (SGI-1776 + Olaparib; first compound 2.53 µM): 0.608
- relative viability (SGI-1776 + Olaparib; first compound 8 µM): 0.491
- relative viability (SGI-1776 + Pictilisib; first compound 0.08 µM): 0.399
- relative viability (SGI-1776 + Pictilisib; first compound 0.8 µM): 0.62
- relative viability (SGI-1776 + Pictilisib; first compound 2.53 µM): 0.564
- relative viability (SGI-1776 + Pictilisib; first compound 8 µM): 0.299
- relative viability ([2]; first compound 0.02 µM): 0.71
- relative viability ([2]; first compound 0.06325 µM): 0.679
- relative viability ([2]; first compound 0.2 µM): 0.688
- relative viability ([2]; first compound 0.6325 µM): 0.923
- relative viability ([2]; first compound 2 µM): 0.415

Cell Line: NCI-H727
- relative viability ([1]; first compound 0.02 µM): 0.378
- relative viability ([1]; first compound 0.06325 µM): 0.332
- relative viability ([1]; first compound 0.2 µM): 0.374
- relative viability ([1]; first compound 0.6325 µM): 0.416
- relative viability ([1]; first compound 2 µM): 0.364
- relative viability (SGI-1776 + Olaparib; first compound 0.08 µM): 0.69
- relative viability (SGI-1776 + Olaparib; first compound 0.8 µM): 0.639
- relative viability (SGI-1776 + Olaparib; first compound 2.53 µM): 0.659
- relative viability (SGI-1776 + Olaparib; first compound 8 µM): 0.679
- relative viability (SGI-1776 + Pictilisib; first compound 0.08 µM): 0.398
- relative viability (SGI-1776 + Pictilisib; first compound 0.8 µM): 0.626
- relative viability (SGI-1776 + Pictilisib; first compound 2.53 µM): 0.376
- relative viability (SGI-1776 + Pictilisib; first compound 8 µM): 0.285
- relative viability ([2]; first compound 0.02 µM): 0.908
- relative viability ([2]; first compound 0.06325 µM): 0.962
- relative viability ([2]; first compound 0.2 µM): 0.739
- relative viability ([2]; first compound 0.6325 µM): 0.725
- relative viability ([2]; first compound 2 µM): 0.505

Cell Line: NCI-H23
- relative viability ([1]; first compound 0.02 µM): 0.337
- relative viability ([1]; first compound 0.06325 µM): 0.322
- relative viability ([1]; first compound 0.2 µM): 0.359
- relative viability ([1]; first compound 0.6325 µM): 0.409
- relative viability ([1]; first compound 2 µM): 0.197
- relative viability (SGI-1776 + Olaparib; first compound 0.08 µM): 0.32
- relative viability (SGI-1776 + Olaparib; first compound 0.8 µM): 0.331
- relative viability (SGI-1776 + Olaparib; first compound 2.53 µM): 0.299
- relative viability (SGI-1776 + Olaparib; first compound 8 µM): 0.332
- relative viability (SGI-1776 + Pictilisib; first compound 0.08 µM): 0.558
- relative viability (SGI-1776 + Pictilisib; first compound 0.8 µM): 0.448
- relative viability (SGI-1776 + Pictilisib; first compound 2.53 µM): 0.449
- relative viability (SGI-1776 + Pictilisib; first compound 8 µM): 0.387
- relative viability ([2]; first compound 0.02 µM): 0.56
- relative viability ([2]; first compound 0.06325 µM): 0.487
- relative viability ([2]; first compound 0.2 µM): 0.38
- relative viability ([2]; first compound 0.6325 µM): 0.511
- relative viability ([2]; first compound 2 µM): 0.344

Cell Line: NCI-H596
- relative viability ([1]; first compound 0.02 µM): 0.772
- relative viability ([1]; first compound 0.06325 µM): 0.87
- relative viability ([1]; first compound 0.2 µM): 0.735
- relative viability ([1]; first compound 0.6325 µM): 0.724
- relative viability ([1]; first compound 2 µM): 0.593
- relative viability (SGI-1776 + Olaparib; first compound 0.08 µM): 0.662
- relative viability (SGI-1776 + Olaparib; first compound 0.8 µM): 1
- relative viability (SGI-1776 + Olaparib; first compound 2.53 µM): 0.82
- relative viability (SGI-1776 + Olaparib; first compound 8 µM): 0.696
- relative viability (SGI-1776 + Pictilisib; first compound 0.08 µM): 0.43
- relative viability (SGI-1776 + Pictilisib; first compound 0.8 µM): 0.383
- relative viability (SGI-1776 + Pictilisib; first compound 2.53 µM): 0.365
- relative viability (SGI-1776 + Pictilisib; first compound 8 µM): 0.298
- relative viability ([2]; first compound 0.02 µM): 1.1
- relative viability ([2]; first compound 0.06325 µM): 0.983
- relative viability ([2]; first compound 0.2 µM): 0.99
- relative viability ([2]; first compound 0.6325 µM): 0.942
- relative viability ([2]; first compound 2 µM): 0.746

Cell Line: NCI-H460
- relative viability ([1]; first compound 0.02 µM): 0.166
- relative viability ([1]; first compound 0.06325 µM): 0.263
- relative viability ([1]; first compound 0.2 µM): 0.142
- relative viability ([1]; first compound 0.6325 µM): 0.133
- relative viability ([1]; first compound 2 µM): 0.0197
- relative viability (SGI-1776 + Olaparib; first compound 0.08 µM): 0.503
- relative viability (SGI-1776 + Olaparib; first compound 0.8 µM): 0.482
- relative viability (SGI-1776 + Olaparib; first compound 2.53 µM): 0.431
- relative viability (SGI-1776 + Olaparib; first compound 8 µM): 0.481
- relative viability (SGI-1776 + Pictilisib; first compound 0.08 µM): 0.376
- relative viability (SGI-1776 + Pictilisib; first compound 0.8 µM): 0.343
- relative viability (SGI-1776 + Pictilisib; first compound 2.53 µM): 0.42
- relative viability (SGI-1776 + Pictilisib; first compound 8 µM): 0.289
- relative viability ([2]; first compound 0.02 µM): 1.16
- relative viability ([2]; first compound 0.06325 µM): 1.03
- relative viability ([2]; first compound 0.2 µM): 0.913
- relative viability ([2]; first compound 0.6325 µM): 0.927
- relative viability ([2]; first compound 2 µM): 0.144
